The text below walks through data of US20230416261A1, “ETHANEDIAMINE-HETEROCYCLE DERIVATIVES AS INHIBITORS OF PROTEIN ARGININE METHYLTRANSFERASES” (Board of Regents, The University of Texas System, priority 2021, published 2023).

Structures are written as SMILES.

The target of experiment [1] is T1, PRMT1 (Homo sapiens, UniProt Q99873). In words: PRMT1 RKO Cellular Target Engagement Assay (In-Cell Western, asymmetric di-methyl arginine). The following applies: RKO cells, 48 hr compound incubation; read-out: RKO IC50 (PRMT-1 Target Engagement). The experiment is classed as cell-based. The method in brief: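 RKO cells (1,000/well) received 1:3 serially diluted compound for 48 h at 37 °C, then were fixed, permeabilised and immunostained for asymmetric di-methyl arginine by In-Cell Western. The 800 nm antibody signal was normalised to CellTag 700 nm; IC50 from four-parameter logistic fit.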
T1 sequence (Q99873 whole entry): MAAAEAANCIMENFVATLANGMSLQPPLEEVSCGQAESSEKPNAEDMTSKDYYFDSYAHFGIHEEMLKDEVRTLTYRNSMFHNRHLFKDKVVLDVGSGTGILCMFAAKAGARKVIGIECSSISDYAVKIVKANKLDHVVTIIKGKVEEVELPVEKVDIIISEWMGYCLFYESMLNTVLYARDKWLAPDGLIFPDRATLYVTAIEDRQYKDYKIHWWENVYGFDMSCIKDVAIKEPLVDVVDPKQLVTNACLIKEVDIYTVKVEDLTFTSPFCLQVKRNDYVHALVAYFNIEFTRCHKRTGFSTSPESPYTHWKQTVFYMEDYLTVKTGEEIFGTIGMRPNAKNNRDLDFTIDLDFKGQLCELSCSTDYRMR

In a further experiment the test system is DOHH2 cells. The experiment in a line: DOHH2 Long Term Phenotypic Assay (7 days, Cell Titer-Glo viability). It counts as cell-based. To be noted: Homo sapiens, DOHH-2, 168 h, Cell Titer-Glo 2.0. The method in brief:
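DOHH2 lymphoma cells (250 per well) in RPMI-1640 with 10% FBS were exposed to 1:3 serially diluted compounds for 7 days at 37 °C, 5% CO2. Viability was read by CellTiter-Glo 2.0 luminescence, and IC50 values came from four-parameter logistic fits.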

Experiment [2] deals with T1, PRMT1. In words: PRMT1 Enzymatic Assay (LANCE TR-FRET, methylation of histone H4 at Arg3). The experiment is classed as biochemical. Set-up: purchased SignalChem P365-380G. To be noted: PRMT1 1.5 nM, SAM 1 μM, biotinylated histone H4 (1-21) 25 nM; read-out: PRMT-1 IC50. The method in brief: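 PRMT1 (1.5 nM) preincubated 15 min with compound at room temperature, then reacted 1 h with 1 μM SAM and 25 nM biotinylated histone H4 (1-21) in 50 mM Hepes pH 8, 1 mM TCEP, 0.003% Tween-20. H4R3me detected by TR-FRET (665/620 nm ratio); IC50 from four-parameter logistic fit.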

In the next experiment the test system is PATC53 cells. The experiment in a line: PATC53 Long Term Phenotypic Assay (14 days, crystal violet viability). It counts as cell-based. The following applies: 336 h. The method in brief:
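Cells seeded at 250 per well, allowed 24 h to settle, then treated with 1:3 serial dilutions of compound for 14 days at 37 °C, 5% CO2. Viability measured by crystal violet staining, solubilised in 10% HOAc, absorbance 590 nm; IC50 from four-parameter logistic fit.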

In the case of `CNCCN(C)Cc1nn2c(c1C1CCC(COC)(COC)CC1)CN(C(=O)C(C)(F)F)CC2` [Example 36, 1-(3-(4,4-bis(methoxy-methyl)cyclohexyl)-2-((methyl(2-(methylamino)-ethyl)amino)methyl)-6,7-dihydropyrazolo[1,5-a]-pyrazin-5(4H)-yl)-2,2-difluoropropan-1-one], the IC50 at PRMT1 [1] amounted to 0.269 µM; in the experiment with DOHH2 cells, 0.19 µM; on PRMT1 [2], 0.05 µM; in the experiment with PATC53 cells, 0.246 µM.

Turning to `CNCCN(C)Cc1nn2c(c1C1CCC(COC)(COC)CC1)CN(C(=O)C(C)(C)C#N)CC2` [Example 37, 3-(3-(4,4-bis(methoxy-methyl)cyclohexyl)-2-((methyl(2-(methylamino)-ethyl)amino)methyl)-6,7-dihydropyrazolo[1,5-a]-pyrazin-5(4H)-yl)-2,2-dimethyl-3-oxopropanenitrile], the 50% inhibitory concentration (IC50) stood at 0.237 µM on PRMT1 [1], 0.142 µM with DOHH2 cells, 0.09 µM on PRMT1 [2] and 0.171 µM with PATC53 cells.

On to `CNCCN(C)Cc1nn2c(c1C1CCC(COC)(COC)CC1)CN(C(=O)C(C)C#N)CC2` (centres unmarked) [Example 38, 3-(3-(4,4-bis(methoxy-methyl)cyclohexyl)-2-((methyl(2-(methylamino)-ethyl)amino)methyl)-6,7-dihydropyrazolo[1,5-a]-pyrazin-5(4H)-yl)-2-methyl-3-oxopropanenitrile], for which the IC50 at PRMT1 [1] was determined as 0.69 µM; in the experiment on DOHH2 cells it was 0.083 µM; on PRMT1 [2], 0.103 µM; in the experiment with PATC53 cells, 0.58 µM.

In the case of `CNCCN(C)Cc1nn2c(c1C1CCC(COC)(COC)CC1)CN(C(=O)C1CC(C)(C)C1)CC2` [Example 39, (3-(4,4-bis(methoxymethyl)-cyclohexyl)-2-((methyl(2-(methylamino)ethyl)amino)-methyl)-6,7-dihydropyrazolo-[1,5-a]pyrazin-5(4H)-yl)(3,3-dimethylcyclobutyl)-methanone], the IC50 at PRMT1 [1] turned out to be 0.177 µM; with DOHH2 cells it was 0.108 µM; at PRMT1 [2], 0.079 µM; in the experiment with PATC53 cells, 0.049 µM.

Regarding `COCC1(COC)CCC(c2c(CN(C)CCN)nn3c2CN(C(=O)C2CC(F)(F)C2)CC3)CC1` [Example 40, (2-(((2-aminoethyl)(methyl)-amino)methyl)-3-(4,4-bis-(methoxymethyl)cyclohexyl)-6,7-dihydropyrazolo[1,5-a]-pyrazin-5(4H)-yl)(3,3-difluorocyclobutyl)-methanone], the IC50 at PRMT1 [1] came out at 1.52 µM; with DOHH2 cells, 0.249 µM; on PRMT1 [2], 0.054 µM; in the experiment with PATC53 cells, 0.304 µM.

As to `CNCCN(C)Cc1nn2c(c1C1CCC(COC)(COC)CC1)CN(C(=O)C1(C#N)CCC1)CC2` [Example 41, 1-(3-(4,4-bis(methoxy-methyl)cyclohexyl)-2-((methyl(2-(methylamino)-ethyl)amino)methyl)-4,5,6,7-tetrahydropyrazolo[1,5-a]-pyrazine-5-carbonyl)cyclobutane-1-carbonitrile], the IC50 came out at 0.18 µM at PRMT1 [1], 0.091 µM in the experiment on DOHH2 cells, 0.072 µM on PRMT1 [2] and 0.175 µM in the experiment with PATC53 cells.

For the molecule `COCC1(COC)CCC(c2c(CN(C)CCN)nn3c2CN(C(=O)C2CCCC2)CC3)CC1` [Example 42, (2-(((2-aminoethyl)(methyl)-amino)methyl)-3-(4,4-bis-(methoxymethyl)cyclohexyl)-6,7-dihydropyrazolo[1,5-a]-pyrazin-5(4H)-yl)-(cyclopentyl)methanone], the IC50 was determined as 0.431 µM at PRMT1 [1], 0.18 µM in the experiment on DOHH2 cells, 0.029 µM on PRMT1 [2] and 0.136 µM with PATC53 cells.

On to `COCC1(COC)CCC(c2c(CN(C)CCN)nn3c2CN(C(=O)C(C)C)CC3)CC1` [Example 43, 1-(2-(((2-aminoethyl)-(methyl)amino)methyl)-3-(4,4-bis(methoxymethyl)-cyclohexyl)-6,7-dihydro-pyrazolo[1,5-a]pyrazin-5(4H)-yl)-2-methylpropan-1-one], for which the IC50 on PRMT1 [1] turned out to be 0.46 µM; with DOHH2 cells, 0.185 µM; at PRMT1 [2], 0.027 µM; in the experiment with PATC53 cells it was 0.149 µM.

Consider `COCC1(COC)CCC(c2c(CN(C)CCN)nn3c2CN(C(=O)C24CC(C2)C4)CC3)CC1` [Example 44, (2-(((2-aminoethyl)(methyl)-amino)methyl)-3-(4,4-bis-(methoxymethyl)cyclohexyl)-6,7-dihydropyrazolo[1,5-a]-pyrazin-5(4H)-yl)(bicyclo-[1.1.1]pentan-1-yl)methanone], for which the IC50 on PRMT1 [1] is 0.21 µM; in the experiment on DOHH2 cells it was 0.15 µM; on PRMT1 [2], 0.017 µM; in the experiment on PATC53 cells it was 0.123 µM.

As for `COCC1(COC)CCC(c2c(CN(C)CCN)nn3c2CN(C(=O)C24CC(F)(C2)C4)CC3)CC1` [Example 45, (2-(((2-aminoethyl)(methyl)-amino)methyl)-3-(4,4-bis-(methoxymethyl)cyclohexyl)-6,7-dihydropyrazolo[1,5-a]-pyrazin-5(4H)-yl)(3-fluorobicyclo[1.1.1]pentan-1-yl)methanone], the IC50 on PRMT1 [1] was determined as 0.83 µM; in the experiment with DOHH2 cells, 0.175 µM; on PRMT1 [2], 0.018 µM; in the experiment on PATC53 cells, 0.178 µM.

`COCC1(COC)CCC(c2c(CN(C)CCN)nn3c2CN(C(=O)C2(C(F)(F)F)CC2)CC3)CC1` [Example 46, (2-(((2-aminoethyl)(methyl)-amino)methyl)-3-(4,4-bis-(methoxymethyl)cyclohexyl)-6,7-dihydropyrazolo[1,5-a]-pyrazin-5(4H)-yl)(1-(trifluoro-methyl)cyclopropyl)-methanone]: the IC50 at PRMT1 [1] came to 0.486 µM; in the experiment with DOHH2 cells it was 0.288 µM; on PRMT1 [2], 0.029 µM; with PATC53 cells, 0.294 µM.

Take `COCC1(COC)CCC(c2c(CN(C)CCN)nn3c2CN(C(=O)C2(F)CC2)CC3)CC1` [Example 47, (2-(((2-aminoethyl)(methyl)-amino)methyl)-3-(4,4-bis-(methoxymethyl)cyclohexyl)-6,7-dihydropyrazolo[1,5-a]-pyrazin-5(4H)-yl)(1-fluorocyclopropyl)methanone]: the IC50 amounted to 0.671 µM at PRMT1 [1], 0.187 µM with DOHH2 cells, 0.015 µM on PRMT1 [2] and 0.045 µM with PATC53 cells.

Consider `CNCCN(C)Cc1nn2c(c1C1CCC(COC)(COC)CC1)CN(C(=O)C1CCC(OC)CC1)CC2` (centres unmarked) [Example 48, (3-(4,4-bis(methoxymethyl)-cyclohexyl)-2-((methyl(2-(methylamino)ethyl)amino)-methyl)-6,7-dihydropyrazolo-[1,5-a]pyrazin-5(4H)-yl)(4-methoxycyclohexyl)-methanone], for which the IC50 came to 1.41 µM at PRMT1 [1], 0.284 µM in the experiment on DOHH2 cells, 0.156 µM on PRMT1 [2] and 0.247 µM with PATC53 cells.

On to `COCC1(COC)CCC(c2c(CN(C)CCN)nn3c2CN(C(=O)C2(F)CCC2)CC3)CC1` [Example 49, (2-(((2-aminoethyl)(methyl)-amino)methyl)-3-(4,4-bis-(methoxymethyl)cyclohexyl)-6,7-dihydropyrazolo[1,5-a]-pyrazin-5(4H)-yl)(1-fluoro-cyclobutyl)methanone], for which the concentration for half-maximal inhibition (IC50) at PRMT1 [1] was found to be 0.329 µM; in the experiment with DOHH2 cells, 0.166 µM; at PRMT1 [2], 0.013 µM; in the experiment on PATC53 cells, 0.118 µM.

With `COCC1(COC)CCC(c2c(CN(C)CCN)nn3c2CN(C(=O)C2CCC(F)(F)CC2)CC3)CC1` [Example 50, (2-(((2-aminoethyl)(methyl)-amino)methyl)-3-(4,4-bis-(methoxymethyl)cyclohexyl)-6,7-dihydropyrazolo[1,5-a]-pyrazin-5(4H)-yl)(4,4-difluorocyclohexyl)-methanone], the IC50 on PRMT1 [1] came out at 1.24 µM; in the experiment on DOHH2 cells, 0.171 µM; on PRMT1 [2] it was 0.017 µM; in the experiment with PATC53 cells it was 0.154 µM.

As to `CNCCN(C)Cc1nn2c(c1C1CCC(COC)(COC)CC1)CN(C(=O)C1CC(F)(F)C1)CC2` [Example 53, (3-(4,4-bis(methoxymethyl)-cyclohexyl)-2-((methyl(2-(methylamino)ethyl)amino)-methyl)-6,7-dihydropyrazolo-[1,5-a]pyrazin-5(4H)-yl)(3,3-difluorocyclobutyl)-methanone], the IC50 at PRMT1 [1] came out at 1.11 µM; with DOHH2 cells it was 0.087 µM; at PRMT1 [2] it was 0.068 µM; with PATC53 cells, 0.042 µM.

`CNCCN(C)Cc1nn2c(c1C1CCC(COC)(COC)CC1)CN(C(=O)C1CC(OC)C1)CC2` (centres unmarked) [Example 58, (3-(4,4-bis(methoxymethyl)-cyclohexyl)-2-((methyl(2-(methylamino)ethyl)amino)-methyl)-6,7-dihydropyrazolo-[1,5-a]pyrazin-5(4H)-yl)(3-methoxycyclobutyl)-methanone]: the IC50 on PRMT1 [1] was found to be 0.372 µM; in the experiment on DOHH2 cells, 0.131 µM; at PRMT1 [2], 0.065 µM; with PATC53 cells it was 0.131 µM.
